Patent US6426076B1 (PASCO Pharmazeutische Präparate GmbH, priority 1997, dated 2002)

Key:
skin metastases = experiment: Case 1: vitamin C infusions in a patient with breast carcinoma, local recurrences and skin metastases; type: in vivo, human; conditions: vitamin C infusions of 7.5 g per infusion
[1] = tested on: metastatic breast cancer and massive bone metastases; experiment: Case 2: vitamin C infusions in a patient with metastatic breast cancer and bone metastases, with concomitant chemotherapy; type: in vivo, human; conditions: ten infusions of 7.5 g vitamin C each
[2] = tested on: normal tissue (skin and bone marrow); experiment: Adjuvant vitamin C infusions with radiation therapy: radiation tolerance of normal tissue; type: in vivo
[3] = Combination therapy of cytostatics with vitamin C: loss of cytostatic effect; conditions: any of the cytostatics investigated
Text: The side effects of chemotherapy are also attributed to an increase in the levels of free radicals in many tissues.

terminal cancer patients = conditions: 100 terminal cancer patients, 10 g vitamin C orally each day; cited from earlier work
cancer patients [4] = conditions: intravenous 0.5 to 10 g/day, then oral 10 to 30 g, cited from earlier work
tumor cell lines = conditions: in certain concentrations; cited from earlier work
normal cell lines = conditions: in the concentrations cytotoxic to tumor cell lines; cited from earlier work
cancer patients [5] = conditions: high-dose vitamin C therapy, case reports; cited from earlier work
[6] = Animal experiments: combination with adriamycin, survival time
[7] = intravenous infusion of 7.5 g vitamin C before and after each radiation

For O=C1O[C@H]([C@@H](O)CO)C(O)=C1O [vitamin C, ascorbic acid], the “comparison with local-acting cytostatic administered previously” value (skin metastases) was “superior to the local-acting cytostatic administered previously”, the “effect on skin metastases” value (skin metastases) was “remission of the skin metastases” and the “pain caused by the bone metastases” value [1] was “great relief from the pain”. For the same compound, the “blood picture (leukocytes and platelets)” value ([1]; concomitant chemotherapy) was “definite improvement in the blood picture (stabilization of leukocytes and platelets)”, the “radioprotective effect on bone marrow” value [2, 7] was “greatly improved” and the “skin reactions accompanying radiation” value [2, 7] was “can be prevented”. For the same compound, the “increase of radiation tolerance of normal tissue” value ([2]; vitamin C infusions, without increasing the radiation dose required to remove the tumors) was “about 20%”, the “loss of effect of the cytostatics” value [3] was “no loss of effect” and the “survival time versus control group” value (terminal cancer patients) was “longer than that of the control group”. For the same compound, the “general well-being and Karnofsky scale” value (cancer patients [4]) was “improvement in general well-being and the Karnofsky scale”, the “pain in skeletal metastasis” value (cancer patients [4]) was “relief from pain in cases of skeletal metastasis” and the “protein tumor markers in the serum” value (cancer patients [4]) was “decline in protein tumor markers in the serum”. For the same compound, the “malignant pleural effusions and pulmonary metastases” value (cancer patients [4]; in favorable cases) was “absorption of malignant pleural effusions and a reduction in the size of pulmonary metastases”, the “effect on tumor cell lines” value (tumor cell lines) was “cytotoxic effect” and the “growth of normal cell lines” value (normal cell lines) was “not influenced”. The “general condition and remissions” value (cancer patients [5]) was “improvement in general condition and spontaneous remissions” and the survival time [6] was “prolonged survival time”.
